Experimental data: patent US11926645B2, “Compounds and methods for treatment of viral infections” (priority 2020, dated 2024)
Read-outs that look alike come from different tables or passages of the source.

How the values were obtained:
[1] = in vitro; conditions: human, PrestoBlue
[2] = test system: RSV-Fluc (Respiratory Syncytial virus strain A2 containing the firefly luciferase reporter); test: microbe, parasite or virus in culture; type: cell-based; conditions: human respiratory syncytial virus, 72 h, NHBE cells, three days
[3] = in vitro; type: in vitro ADME, Human; conditions: human, s9, pH 7.4
In short: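 Compound at 2 μM final was incubated with S9 fraction at 1.0 mg/mL protein in 100 mM PBS pH 7.4, in duplicate, with GS-7340 as positive control. Samples were taken at 0, 10, 20, 30, 60 and 120 min and quenched with internal standard. Remaining compound was quantified by LC-MS as analyte/internal-standard peak-area ratio.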

[4] = male, Sprague-Dawley, rat, in vivo, po, 8 mg/kg
[5] = test system: SARS-CoV-2 hCoV-19/Japan/TY7-503/2021 (BZ/2021); type: in vivo
[6] = test system: SARS-CoV-2 (WA1); type: in vivo, AGM
[7] = test system: SARS-CoV-2 2019-nCoV/USA-WA1/2020; type: in vivo
[8] = in vitro; type: in vitro ADME; conditions: s9, pH 7.4
Protocol: Duplicate aliquots of test compound or positive control substrate (GS-7340) were added to S9 stock diluted with 100 mM potassium phosphate buffer, pH 7.4, to obtain a protein concentration of 2.4 mg/mL. The S9 metabolic reactions were initiated by the addition of the substrates to the S9 reaction mixture to a final concentration of 2 μM. At 2, 12, 25, 45, 65 and 90 min, 25 μL aliquots of the reaction mixture were transferred to plates containing 225 μl of IS/Q solution. After quenching, the plates were centrifuged at 3000×g for 30 minutes, and 150 μl, aliquots of each supernatant were diluted with 150 μl, water. Aliquots (10 μL) of the diluted supernatant were analyzed on a Thermo Q-Exactive mass spectrometer as described below.
Quantification of test compounds and controls was performed by analyte/internal standard peak area ratio (PAR) values measured on a Thermo Q-Exactive mass spectrometer coupled to a Dionex UltiMate 3000 HPLC with a Leap Technologies HTC PAL autosampler. The column used was a Thermo Hypersil GOLD (1.9 μm particle size, 2.1×50 mm). Mobile phase A consisted of 0.1% (v/v) formic acid in water. Mobile phase B consisted of 0.1% (v/v) formic acid in acetonitrile. Elution of analytes was achieved by a series of linear gradients of acetonitrile in water containing 0.1% (v/v) formic acid. The mass spectrometer was calibrated on a weekly basis and mass tolerance of 5 ppm was used.

[9] = Plasma stability; conditions: human
[10] = test system: SARS-CoV-2 CA/2020; test: microbe, parasite or virus in culture; type: cell-based; conditions: Severe acute respiratory syndrome coronavirus 2, Vero C1008
[11] = test system: RSV strain A2; test: RSV antiviral assay (Hep2), EC50-Hep2/B1-384; type: cell-based; conditions: human respiratory syncytial virus, HEp-2, 96 h; Hep2 cells, 4 days, Cell-Titer Glo
[12] = in vitro; conditions: hamster
[13] = test system: SARS-CoV-2 BZ/2021 P.1; test: microbe, parasite or virus in culture; type: cell-based; conditions: Severe acute respiratory syndrome coronavirus 2, Vero C1008
[14] = in vivo, po
[15] = test system: SARS-CoV-2 WA1/2020 A; test: microbe, parasite or virus in culture; type: cell-based; conditions: Severe acute respiratory syndrome coronavirus 2, Vero C1008
[16] = […], Compound 1 10 mg/kg and 3 mg/kg, EIDD-2801/molnupiravir 5 mg/kg

CC(C)C(=O)OC[C@H]1O[C@@](C#N)(c2ccc3c(N)ncnn23)[C@H](OC(=O)C(C)C)[C@@H]1OC(=O)C(C)C [Compound 1, (2R,3R,4R,5R)-2-(4-aminopyrrolo[2,1-f][1,2,4]triazin-7-yl)-2-cyano-5-((isobutyryloxy)methyl)tetrahydrofuran-3,4-diyl bis(2-methylpropanoate)]
CC50 ([1]; CC50, DF2 HAE, primary diseased (asthma) HAE donor DF2, 72 hours): 86 µM
CC50 ([1]; CC50, F2 HAE, primary HAE donor F2, 72 hours): 43.8 µM
CC50 ([1]; CC50, F3 HAE, primary HAE donor F3, 72 hours): 43.8 µM
CC50 ([1]; CC50, M2 HAE, primary HAE donor M2, 72 hours): 39.7 µM
CC50 ([1]; CC50, M6 HAE, primary HAE donor M6, 72 hours): 92.3 µM
EC50 [2]: 0.389 µM
half-life at 2 μM [3]: 0.37 min
Cmax [4]: 5.83 µM
Infectious viral particles in nasal turbinates of contact animals ([5]; […], 5.5 days after initiation of co-housing): absent
Shedding of infectious particles or viral RNA by contacts of treated source ferrets ([5]; […], source animals oral 10 mg/kg b.i.d.): None of the contacts of treated source ferrets shed infectious particles or viral RNA at any time
Viral RNA in nasal turbinates of the contact animals ([5]; in vivo): < 10^5 copies/g nasal turbinate
Lowering of viral RNA copies in nasal lavages and turbinates ([5]; in vivo, po, 10 mg/kg): over three orders of magnitude
Shed virus burden (nasal lavage) ([5]; in vivo, po, 10 mg/kg): undetectable
Tissue titers (nasal turbinates) ([5]; in vivo, po, 10 mg/kg): undetectable
Infectious SARS-CoV-2 titers versus vehicle ([6]; AGMs, PO 60 or 120 mg/kg QD, days 2-6): trended lower than the vehicle group
Viral RNA loads in lower lung tissue versus vehicle ([6]; AGMs, PO 60 or 120 mg/kg QD, terminal day 6): trended lower
mean SARS-CoV-2 gRNA in BALF versus vehicle ([6]; in vivo, po): significantly reduced
SARS-CoV-2 gRNA in BALF versus vehicle ([6]; in vivo, po, 60 mg/kg): significantly lower than vehicle animals
Clinical signs versus vehicle animals [7, 16]: No significant differences in clinical signs
Virus burden in the turbinates [7, 16]: reduced burden in the turbinates
Shed virus load (nasal lavages) versus vehicle ([7]; […], Compound 1 10 mg/kg and 3 mg/kg, EIDD-2801/molnupiravir 5 mg/kg, within 12 hours of treatment onset): lower in all treated animals than in the vehicle group
Viral RNA copies in nasal lavages and turbinates versus vehicle ([7]; […], Compound 1 10 mg/kg, EIDD-2801/molnupiravir 5 mg/kg): statistically significant mean reduction
Clinical signs (body temperature, weight gain) ([7]; in vivo, po, 20 mg/kg): only animals of the vehicle group showed elevated body temperature
Shed SARS-CoV-2 load in nasal lavages ([7]; in vivo, po, 20 mg/kg): transiently detectable in lavages of only one ferret
Viral RNA copy numbers in turbinates, difference between vehicle and treatment groups ([7]; in vivo, po, 20 mg/kg): three
Virus in nasal turbinates 4 days after infection ([7]; in vivo, po, 20 mg/kg): undetectable
half-life at 2 μM [8]: 2 min
half-life at 2 μM [9]: 5.5 min
EC50 [10]: 0.21 µM
EC50 [11]: 0.261 µM
CC50 [12]: > 100 µM
EC50 [13]: 0.22 µM
Compound 1 concentration transiently observed ([14]; ferret, 30 mg/kg): ^aapproximately 10 nM Compound 1 transiently observed in first two hours.
oral bioavailability (in words) [14]: excellent oral bioavailability
Cmax ([14]; 30 mg/kg): 15.8 ± 4.7 µM
EC50 [15]: 0.73 µM
